Among the data in PubChem BioAssay AID248 (DTP/NCI, 2004) are T/C values, retold here.

Molecules are shown by their SMILES. “And” between values parts separate entries of the source, which are not always exact repeats. Identical values can stand only once. Toxic doses and inconclusive results are not listed.

This assay relates to L1210 leukemia ip in BDF1 mice, survival T/C. Briefly: NCI In Vivo Anticancer Drug Screen. Data for tumor model L1210 Leukemia (intraperitoneal) in B6D2F1 (BDF1) mice. Particulars: endpoint: mean survival time, higher = longer survival. In a few lines: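 Each compound was tested against a transplantable tumor grown in mice. The endpoint was survival, with treated animals benchmarked against vehicle controls as a simple ratio.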

The mark [1] stands for this setting: dose: 100.0 mg/kg/injection, schedule: Q04DX003 (ip), vehicle: saline.
The mark [2] stands for this setting: dose: 200.0 mg/kg/injection, schedule: Q04DX003 (ip), vehicle: saline.
[3] abbreviates: dose: 400.0 mg/kg/injection, schedule: Q04DX003 (ip), vehicle: saline.
The mark [4] stands for this setting: dose: 100.0 mg/kg/injection, schedule: Q04DX003 (ip), vehicle: Klucel (hydroxypropylcellulose) (HPC).
Setting [5] is: dose: 200.0 mg/kg/injection, schedule: Q04DX003 (ip), vehicle: Klucel (hydroxypropylcellulose) (HPC).
[6] abbreviates: dose: 400.0 mg/kg/injection, schedule: Q04DX003 (ip), vehicle: Klucel (hydroxypropylcellulose) (HPC).
The mark [7] stands for this setting: dose: 100.0 mg/kg/injection, schedule: Q04DX002 (ip), vehicle: saline with Tween-80.
Setting [8] is: dose: 200.0 mg/kg/injection, schedule: Q04DX002 (ip), vehicle: saline with Tween-80.
The mark [9] stands for this setting: dose: 400.0 mg/kg/injection, schedule: Q04DX002 (ip), vehicle: saline with Tween-80.
Setting [10] is: dose: 100.0 mg/kg/injection, schedule: Q01DX001 (ip), vehicle: Klucel (hydroxypropylcellulose) (HPC).
[11] abbreviates: dose: 200.0 mg/kg/injection, schedule: Q01DX001 (ip), vehicle: Klucel (hydroxypropylcellulose) (HPC).

Regarding `O=NN(CCCl)C(=O)Nc1ccc(Cl)c(Cl)c1`, the T/C by setting is: (dose: 5.0 mg/kg/injection, schedule: Q01DX009 (ip), vehicle: carboxymethylcellulose (CMC)) 121 % of control; (dose: 8.0 mg/kg/injection, schedule: Q01DX009 (ip), vehicle: carboxymethylcellulose (CMC)) 114 % of control; (dose: 17.0 mg/kg/injection, schedule: Q01DX015 (ip), vehicle: carboxymethylcellulose (CMC)) 114 % of control; (dose: 26.0 mg/kg/injection, schedule: Q01DX015 (ip), vehicle: carboxymethylcellulose (CMC)) 163 % of control and 167 % of control; (dose: 39.0 mg/kg/injection, schedule: Q01DX015 (ip), vehicle: carboxymethylcellulose (CMC)) 119 % of control and 121 % of control; (dose: 58.0 mg/kg/injection, schedule: Q01DX015 (ip), vehicle: carboxymethylcellulose (CMC)) 117 % of control and 89 % of control. Also, the T/C reads like this: (dose: 100.0 mg/kg/injection, schedule: Q01DX001 (ip), vehicle: carboxymethylcellulose (CMC)) 116 % of control; (dose: 200.0 mg/kg/injection, schedule: Q01DX001 (ip), vehicle: carboxymethylcellulose (CMC)) 161 % of control; (dose: 300.0 mg/kg/injection, schedule: Q01DX001 (ip), vehicle: carboxymethylcellulose (CMC)) 89 % of control.

For `CCCCCCCCCCCCCCCCNC(=S)NC1CCCCC1`, the T/C runs as follows: (dose: 30.0 mg/kg/injection, schedule: Q01DX015 (ip), vehicle: carboxymethylcellulose (CMC)) 104 % of control; (dose: 60.0 mg/kg/injection, schedule: Q01DX015 (ip), vehicle: carboxymethylcellulose (CMC)) 98 % of control; (dose: 100.0 mg/kg/injection, schedule: Q01DX001 (ip), vehicle: acetone) 100 % of control; (dose: 100.0 mg/kg/injection, schedule: Q01DX009 (ip), vehicle: saline with Tween-80) 102 % of control; under setting [1], 101 % of control; (dose: 120.0 mg/kg/injection, schedule: Q01DX015 (ip), vehicle: carboxymethylcellulose (CMC)) 94 % of control. The T/C by setting is: (dose: 200.0 mg/kg/injection, schedule: Q01DX001 (ip), vehicle: acetone) 88 % of control; (dose: 200.0 mg/kg/injection, schedule: Q01DX009 (ip), vehicle: saline with Tween-80) 96 % of control; under setting [2], 97 % of control; (dose: 240.0 mg/kg/injection, schedule: Q01DX015 (ip), vehicle: carboxymethylcellulose (CMC)) 94 % of control and 102 % of control; (dose: 400.0 mg/kg/injection, schedule: Q01DX001 (ip), vehicle: acetone) 91 % of control; under setting [3], 101 % of control. Also, the T/C (dose: 480.0 mg/kg/injection, schedule: Q01DX015 (ip), vehicle: carboxymethylcellulose (CMC)) was 101 % of control.

For `CC(=O)OCCN1C(=O)CN=C(c2ccccn2)c2cc(Cl)ccc21`, the T/C runs as follows: (dose: 100.0 mg/kg/injection, schedule: Q01DX009 (ip), vehicle: Klucel (hydroxypropylcellulose) (HPC)) 99 % of control; under setting [4], 100 % of control; (dose: 200.0 mg/kg/injection, schedule: Q01DX009 (ip), vehicle: Klucel (hydroxypropylcellulose) (HPC)) 102 % of control; under setting [5], 101 % of control; (dose: 400.0 mg/kg/injection, schedule: Q01DX009 (ip), vehicle: Klucel (hydroxypropylcellulose) (HPC)) 94 % of control; under setting [6], 97 % of control.

`CC1CC(C)(C)N=C(CC(C)(O)c2ccccn2)O1` (stereo not drawn): the T/C is, setting by setting: (dose: 100.0 mg/kg/injection, schedule: Q01DX001 (ip), vehicle: saline sonified) 97 % of control; (dose: 200.0 mg/kg/injection, schedule: Q01DX001 (ip), vehicle: saline sonified) 103 % of control; (dose: 400.0 mg/kg/injection, schedule: Q01DX001 (ip), vehicle: saline sonified) 100 % of control.

For the compound `CC(C)(C)c1cc(C#N)cc(Br)c1OP(=O)(Oc1c(Br)cc(C#N)cc1C(C)(C)C)c1ccccc1`, the T/C was 95 % of control under setting [7], 92 % of control under setting [8] and 97 % of control under setting [9].

For `S=c1cc(-c2cccs2)ss1`, the T/C runs as follows: (dose: 50.0 mg/kg/injection, schedule: Q01DX009 (ip), vehicle: saline) 107 % of control; (dose: 100.0 mg/kg/injection, schedule: Q01DX009 (ip), vehicle: saline) 96 % of control and 91 % of control; under setting [1], 93 % of control; (dose: 200.0 mg/kg/injection, schedule: Q01DX009 (ip), vehicle: saline) 93 % of control and 91 % of control; under setting [2], 105 % of control; (dose: 300.0 mg/kg/injection, schedule: Q01DX009 (ip), vehicle: saline) 95 % of control. The T/C is 98 % of control (dose: 400.0 mg/kg/injection, schedule: Q01DX009 (ip), vehicle: saline) and 88 % of control under setting [3].

With `CC1CN1CCS(=O)(=O)CCN1CC1C` (stereo not drawn), the T/C is 95 % of control (dose: 0.3 mg/kg/injection, schedule: Q01DX015 (ip), vehicle: carboxymethylcellulose (CMC)); 101 % of control (dose: 0.6 mg/kg/injection, schedule: Q01DX015 (ip), vehicle: carboxymethylcellulose (CMC)); 109 % of control (dose: 1.2 mg/kg/injection, schedule: Q01DX015 (ip), vehicle: carboxymethylcellulose (CMC)); 101 % of control (dose: 1.25 mg/kg/injection, schedule: Q01DX015 (ip), vehicle: carboxymethylcellulose (CMC)); 103 % of control and 110 % of control (dose: 2.5 mg/kg/injection, schedule: Q01DX015 (ip), vehicle: carboxymethylcellulose (CMC)); 102 % of control (dose: 3.1 mg/kg/injection, schedule: Q01DX015 (ip), vehicle: saline). Further, the T/C was 102 % of control (dose: 4.6 mg/kg/injection, schedule: Q01DX015 (ip), vehicle: saline); 101 % of control (dose: 5.0 mg/kg/injection, schedule: Q01DX015 (ip), vehicle: carboxymethylcellulose (CMC)); 94 % of control (dose: 7.0 mg/kg/injection, schedule: Q01DX015 (ip), vehicle: saline); 100 % of control and 112 % of control (dose: 10.0 mg/kg/injection, schedule: Q01DX015 (ip), vehicle: carboxymethylcellulose (CMC)); 100 % of control (dose: 10.0 mg/kg/injection, schedule: Q01DX015 (ip), vehicle: saline); 108 % of control (dose: 20.0 mg/kg/injection, schedule: Q01DX015 (ip), vehicle: carboxymethylcellulose (CMC)). For the same compound, the T/C (dose: 40.0 mg/kg/injection, schedule: Q01DX015 (ip), vehicle: carboxymethylcellulose (CMC)) was 114 % of control.

As to `CCCCSSCCCC`, the T/C by setting is: (dose: 50.0 mg/kg/injection, schedule: Q01DX001 (ip), vehicle: Klucel (hydroxypropylcellulose) (HPC)) 94 % of control; under setting [10], 102 % of control; under setting [11], 105 % of control.

Consider `CCC(OO)(C1=NC(C)(C)CO1)c1ccncc1Br` (stereo not drawn), for which the T/C was 98 % of control under setting [10]; 97 % of control under setting [4]; 101 % of control under setting [11]; 101 % of control under setting [5]; 102 % of control under setting [6].

With `NNC(=O)c1ncn(C2OC(CO)C(O)C2O)c1C(=O)NN` (stereo not drawn), the T/C was 102 % of control (dose: 50.0 mg/kg/injection, schedule: Q01DX001 (ip), vehicle: saline); 98 % of control (dose: 100.0 mg/kg/injection, schedule: Q01DX001 (ip), vehicle: saline); 102 % of control (dose: 200.0 mg/kg/injection, schedule: Q01DX001 (ip), vehicle: saline); 98 % of control (dose: 400.0 mg/kg/injection, schedule: Q01DX001 (ip), vehicle: saline).

In the case of `Cc1cccc(NC(=O)C(Cl)(Cl)Cl)c1`, the T/C (dose: 100.0 mg/kg/injection, schedule: Q04DX002 (ip), vehicle: Klucel (hydroxypropylcellulose) (HPC)) was 109 % of control; the T/C (dose: 200.0 mg/kg/injection, schedule: Q04DX002 (ip), vehicle: Klucel (hydroxypropylcellulose) (HPC)) was 98 % of control; the T/C (dose: 400.0 mg/kg/injection, schedule: Q04DX002 (ip), vehicle: Klucel (hydroxypropylcellulose) (HPC)) was 98 % of control.

`OCC1OC(OC2C(CO)OCC(O)C2O)C(O)C(O)C1O` (stereo not drawn): the T/C under setting [7] is 100 % of control, the T/C under setting [8] was 100 % of control and the T/C under setting [9] is 88 % of control.
